Reference: the NIST ThermoML archive (doi:10.1016/j.fluid.2012.03.016)
± gives the expanded uncertainty stated by the source.

Conditions: Pendant drop shape

SMILES: C[N+](C)(C)CCO.O=C([O-])CCC(=O)O [2-hydroxy-N,N,N-trimethylethanaminium 3-carboxypropanoate]
- surface tension liquid-gas (308.2 K): 40.7 ± 1.1 mN/m
- surface tension liquid-gas (313.9 K): 40.4 ± 1.1 mN/m
- surface tension liquid-gas (319.2 K): 40.1 ± 1.1 mN/m
- surface tension liquid-gas (324 K): 39.5 ± 1.1 mN/m
- surface tension liquid-gas (328.5 K): 39.5 ± 1.1 mN/m
- surface tension liquid-gas (333.6 K): 38.9 ± 1.1 mN/m
- surface tension liquid-gas (339.4 K): 38.4 ± 1.1 mN/m

SMILES: CCC(=O)[O-].C[N+](C)(C)CCO [cholinium propanoate]
- surface tension liquid-gas (294 K): 34.6 ± 1.1 mN/m
- surface tension liquid-gas (302.6 K): 33.3 ± 1.1 mN/m
- surface tension liquid-gas (313.7 K): 32.6 ± 1.1 mN/m
- surface tension liquid-gas (324.1 K): 32.3 ± 1.1 mN/m
- surface tension liquid-gas (333.8 K): 31.7 ± 1.1 mN/m
- surface tension liquid-gas (343.4 K): 31.2 ± 1.1 mN/m
- surface tension liquid-gas (354.5 K): 30.9 ± 1.1 mN/m
- surface tension liquid-gas (373.4 K): 29.5 ± 1.1 mN/m
- surface tension liquid-gas (392.6 K): 28.6 ± 1.1 mN/m

SMILES: C/C=C(\C)C(=O)[O-].C[N+](C)(C)CCO
- surface tension liquid-gas (294 K): 31.6 ± 1.1 mN/m
- surface tension liquid-gas (303.9 K): 30.7 ± 1.1 mN/m
- surface tension liquid-gas (314.2 K): 30.7 ± 1.1 mN/m
- surface tension liquid-gas (323.9 K): 30.9 ± 1.1 mN/m
- surface tension liquid-gas (333.5 K): 30.2 ± 1.1 mN/m
- surface tension liquid-gas (338 K): 29.8 ± 1.1 mN/m
- surface tension liquid-gas (340.1 K): 29.9 ± 1.1 mN/m
- surface tension liquid-gas (346.2 K): 29.9 ± 1.1 mN/m
- surface tension liquid-gas (348.2 K): 28.5 ± 1.1 mN/m
- surface tension liquid-gas (357.4 K): 28 ± 1.1 mN/m
- surface tension liquid-gas (362.5 K): 28.2 ± 1.1 mN/m
- surface tension liquid-gas (373 K): 27.6 ± 1.1 mN/m
- surface tension liquid-gas (379.5 K): 26.1 ± 1.1 mN/m
- surface tension liquid-gas (391.8 K): 26.4 ± 1.1 mN/m
